Assays:
[1] = system: nude mice (SKH-1); test: Recovery of acute skin barrier disruption (tape stripping); type: in vivo
Protocol: The recovery rate after acute skin barrier disruption was evaluated on a selected compound by using nude mice. Skins of both abdominal regions of each of 6-8 week aged nude mice (SKH-1) were subjected to repetitive tape stripping, so that transepidermal water loss reached a level of about 35˜40 g/m^2/hr, and then, respective samples were applied thereto. The transepidermal water loss was measured by using the TEWameter (Courage & Khazaka, Germany) immediately before and after skin barrier disruption and 3 hours and 6 hours after application, and the recovery rate of transepidermal water loss was calculated as follows.
(wherein, TEWLa is TEWL value immediately after barrier disruption, TEWLb is TEWL value at the baseline, and TEWLc is TEWL value at the indicated time.)

[2] = target: T1, PAR-2 (Homo sapiens, UniProt P55085); test: PathHunter β-arrestin GPCR assay; type: cell-based; parameters: expressed in transfected cells; host or cells: KNRK (Kirsten Murine Sarcoma Virus transformed rat kidney epithelial cells); settings: β-arrestin accumulation
T1 sequence (P55085 26-397): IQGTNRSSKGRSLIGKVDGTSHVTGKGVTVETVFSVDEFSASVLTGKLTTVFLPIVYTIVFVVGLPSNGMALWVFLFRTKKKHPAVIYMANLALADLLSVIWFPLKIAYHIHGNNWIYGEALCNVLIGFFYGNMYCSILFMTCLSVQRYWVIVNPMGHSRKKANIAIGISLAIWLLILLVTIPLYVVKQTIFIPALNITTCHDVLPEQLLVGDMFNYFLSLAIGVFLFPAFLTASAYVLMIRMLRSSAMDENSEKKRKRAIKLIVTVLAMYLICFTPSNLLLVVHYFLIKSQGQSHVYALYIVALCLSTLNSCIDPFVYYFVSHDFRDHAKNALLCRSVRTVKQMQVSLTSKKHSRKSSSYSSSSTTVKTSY
Protocol: An in vitro assay protocol capable of detecting activation of PAR-2 was additively introduced besides the calcium immobilization assay, and activity of the selected material was measured. First, the PAR-2 inhibitory activity of Compound 98 was measured by using the PathHunter™ β-arrestin GPCR assay kit by DiscoveRx Company, capable of detecting accumulation of β-arrestin, which is an intercellular reaction material primarily generated by activation of PAR-2. As the measurement results, an IC50 value slightly different from the Calcium immobilization assay was observed (Table 1).

[3] = system: nude mice (SKH-1); test: Oxazolone chronic dermatitis animal model; type: in vivo; settings: compared with the control group
Protocol: Efficacy of a selected material was evaluated by using a chronic dermatitis animal model. An animal model of which chronic dermatitis was induced by continuously applying oxaozolone, which is a kind of hapten, to the nude mice was used. […] In order to construct a chronic dermatitis animal model, 5% of oxazolone was applied to 6-week nude mice (SKH-1) and thus sensitized, and 0.1% of oxazolone was applied once every two days from a week after, resulting in inducing dermatitis symptom. The sample was applied to an animal after induction at an interval of once a day for three days, and various dermal functions and skin thickness change were observed. Finally, skin biopsy was conducted and histological observation was conducted.
As a positive control group used in the experiment, 0.05% of desonide, which is relatively low potency steroid, was used, and the transepidermal water loss, the moisture content in the stratum corneum, and skin thickness change were observed.

[4] = target: T1, PAR-2; test: Calcium immobilization assay (Calcium-4 assay kit); type: cell-based; parameters: expressed in transfected cells; settings: HCT-15 PAR-2-overexpressed cell line, activating peptide (AP) as activator
Protocol: In order to evaluate PAR-2 inhibitory activity of the synthesized material, first, an assay system capable of measuring the change in concentration of calcium ions in a cell in real-time was constructed, and then an evaluation was conducted by using the assay system. PAR-2 is a kind of G-protein coupled receptor (GPCR). When the PAR-2 is activated in the cell, phospholipase C-b (PLC-b) was activated to cleave phosphatidylinositol 4,5-bisphosphate (PIP2) into inositol triphosphate (IP3) and diacyl glycerol (DAG). The IP3 generated herein promotes secretion of calcium ions in an endoplasmic reticulum (ER), calcium ion reservoir in the cell, resulting in increasing calcium ions in the cell. An in vitro screening assay system capable of searching materials that may suppress the increase in concentration of calcium ions in the cell due to activation of PAR-2 was constructed based on the existing search results. As a PAR-2 activator used in the experiment, activating peptide (AP) was used. As a reagent for detecting the concentration of calcium ions in the cell, the Calcium-4 assay kit by Molecular Probe Company was used. HCT-15, a PAR-2-overexpressed cell line, was used as a cell line used in the experiment.
The PAR-2 inhibitory activity of the synthesized material was evaluated by using such the protocol, and the assay profile of Compound 98 synthesized in Example 1 was shown in FIG. 1.

[5] = target: T1, PAR-2; test: Confocal microscopy of PAR-2 activation in KNRK-PAR-2 cell line; type: cell-based; parameters: expressed in transfected cells; host or cells: KNRK (Kirsten Murine Sarcoma Virus transformed rat kidney epithelial cells); settings: [Compound 98]=200 μM, [trypsin]=1 μM, [SLIGKV]=100 μM, KNRK-PAR-2 cells
Protocol: In order to visually confirm activation of PAR-2, a cell line having the following structure was prepared referring to the existing reference documents, and activation of PAR-2 was observed by using a confocal microscopy. As a cell line, Kirsten Murine Sarcoma Virus transformed rat kidney epithelial cell (KNRK cell) was used, which is a cell line where, normally, PAR-2 is not expressed. In the KNRK cell, flag epitope was tagged to an N-terminal and Myc epitope was tagged to a C-terminal, so that a stable transfected cell was constructed. Flag and Myc of the thus prepared KNRK-PAR-2 cell line were subjected to double staining, and activation or non-activation of PAR-2 was observed by using the confocal microscopy ([trypsin]=1 μM, [SLIGKV(AP)]=100 μM). When the PAR-2 was not activated, Flag and Myc were double-stained and thus appears yellow in the merged image. However, when the PAR-2 was activated, Flag was separated away and thus a red image was shown.

- IC50 [2]: 95.3 µM
- IC50 [4]: 243 µM
- Activation of PAR-2 (Flag/Myc double staining image) [5]: activation of PAR-2 was suppressed
Substance: (2-methyl-1-m-tolyl-1H-benzo[d]imidazol-5-yl)(piperidin-1-yl)methanone [Compound 98]
- Recovery rate of transepidermal water loss after acute skin barrier disruption ([1]; 1.0% applied to skin, 3 and 6 hours after application): rapid recovery
- Activity in promoting the recovery after skin barrier disruption ([1]; overall conclusion, FIG. 3): best activity in promoting the recovery after skin barrier disruption
- Recovery of transepidermal water loss ([3]; FIG. 4): promoted recovery
- Recovery of moisture content in the stratum corneum ([3]; FIG. 5): promoted recovery
- PCNA positive keratinocyte (PCNA staining) ([3]; FIG. 7): statically significant decrease

Reference: patent US8809541B2, “Heterocyclic compound, and composition for treating inflammatory diseases using same” (Neopharm Co., Ltd., priority 2010, dated 2014)
